# Test results from article PMC9478340, “Inhibitors targeting the autophosphorylation of serine/threonine kinase of Streptococcus suis show potent antimicrobial activity” (Frontiers in Microbiology, 2022).
# Target: T1, serine/threonine kinase (ssSTK) (Streptococcus suis, UniProt A0A0H3MXV7)
# T1 construct: gene SSUBM407_0373; 6 × his-tagged kinase domain of ssSTK (ssSTK^KD, pET28a-stk^KD) is the wild-type expression construct described; the assay text says 'purified ssSTK'
# Assay: Kinase-Glo ATP consumption assay of autophosphorylation; confirmed by anti-P-Thr western blot
# Format: biochemical
# T1 sequence (A0A0H3MXV7 entry or part of it): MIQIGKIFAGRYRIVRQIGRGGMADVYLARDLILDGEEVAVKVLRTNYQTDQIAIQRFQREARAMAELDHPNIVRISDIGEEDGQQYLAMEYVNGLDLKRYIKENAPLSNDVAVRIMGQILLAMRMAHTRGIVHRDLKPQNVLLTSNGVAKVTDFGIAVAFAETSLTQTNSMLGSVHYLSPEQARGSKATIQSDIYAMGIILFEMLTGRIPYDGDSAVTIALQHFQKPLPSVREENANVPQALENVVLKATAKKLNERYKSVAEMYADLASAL
row,SMILES,IC50
1,O=C(Nc1c[nH]nc1-c1nc2cc(CN3CCOCC3)ccc2[nH]1)NC1CC1 [AT9283],10.6 µM
2,CN[C@@H]1C[C@H]2O[C@@](C)([C@@H]1OC)n1c3ccccc3c3c4c(c5c6ccccc6n2c5c31)C(=O)NC4 [Staurosporine],8.97 µM
3,c1cc(Nc2cc(C3CC3)[nH]n2)nc(Nc2ccc3[nH]cnc3c2)n1 [APY29],10.1 µM
4,COC(=O)[C@@]1(O)C[C@H]2O[C@]1(C)n1c3ccccc3c3c4c(c5c6ccccc6n2c5c31)C(=O)NC4 [K252a],13.8 µM
